In ChEMBL document CHEMBL4190387 (Bioorg Med Chem Lett, 2018):

Legend:
in vitro = details: human, cryopreserved hepatocytes
physchem = details: buffer, pH 6.5

SMILES	hepatocyte CLint at 1.5 h, 1 µM (in vitro)	chromatographic logD (physchem)
CCN(CC)c1ccc(-c2cc(-c3ccc(C(=O)O)cc3)ccc2OCCCCO)cc1C(C)(C)C	33 µL/min/1e6 cells	4.3
CC(C)(C)c1cc(-c2cc(-c3ccc(C(=O)O)cc3)ccc2OCCO)ccc1N1CCCC1 [TRIFAROTENE]	72 µL/min/1e6 cells	3.5
CCN(CC)c1ccc(-c2cc(-c3ccc(C(=O)O)cc3)ccc2OCCCO)cc1	11 µL/min/1e6 cells	1.9
O=C(O)c1ccc(-c2ccc(OCCCCO)c(-c3ccc(N4CCCC4)c(C(F)(F)F)c3)c2)cc1	22 µL/min/1e6 cells	2.8
